Each compound was assayed on Aβ42 (assay: In vitro cell screening assay; quantification of Aβ (1-42) peptide by sandwich ELISA). Settings: Human neuroglioma H4 cells stably expressing human wild type APP751; compounds 0.003-10 μM, incubated overnight (16-18 h); Aβ42 in supernatant by sandwich ELISA; normalized to DMSO and DAPT; read-out: Aβ42 H4 Prot Fre IC50.
Type: cell-based
Summary of the method: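 Stable H4 neuroglioma line expressing human wild-type APP751; compounds 0.003-10 μM (0.33% DMSO final) added in Pro293 medium 6 h after plating, incubated overnight (16-18 h) at 37 °C. Secreted Aβ42 measured in supernatant by C-terminal-capture sandwich ELISA with 4G8-HRP detection; IC50 by sigmoidal fit, normalized to DMSO and DAPT.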
COc1nc(C2=NOC(C)C(c3cn(C)c4cc(F)c(F)cc34)N2)ccc1-n1cnc(C)c1 (single isomer, unassigned; (-)) [Example 39B, (−)-5-(5,6-difluoro-1-methyl-1H-indol-3-yl)-3-(6-methoxy-5-(4-methyl-1H-imidazol-1-yl)pyridin-2-yl)-6-methyl-5,6-dihydro-4H-1,2,4-oxadiazine] gave an IC50 of 0.0704 µM. With COc1nc(C2=NOC(C)C(c3cn(C)c4cc(F)c(F)cc34)N2)ccc1-n1cnc(C)c1 (single isomer, unassigned; (-)) [Example 39C, (−)-5-(5,6-difluoro-1-methyl-1H-indol-3-yl)-3-(6-methoxy-5-(4-methyl-1H-imidazol-1-yl)pyridin-2-yl)-6-methyl-5,6-dihydro-4H-1,2,4-oxadiazine] the IC50 was 0.729 µM. With COc1nc(C2=NOC(C)C(c3ccc(Cl)cc3)N2)ccc1-n1cnc(Cl)c1 (single isomer, unassigned; (-)) [Example 42A, (−)-3-(5-(4-chloro-1H-imidazol-1-yl)-6-methoxypyridin-2-yl)-5-(4-chlorophenyl)-6-methyl-5,6-dihydro-4H-1,2,4-oxadiazine] the IC50 was greater than 3 µM. With COc1cc(C2=NOC(C)C(c3ccc(Cl)cc3)N2)ccc1-n1cnc(C)c1 (single isomer, unassigned; (-)) [Example 43A, (−)-5-(4-chlorophenyl)-3-(3-methoxy-4-(4-methyl-1H-imidazol-1-yl)phenyl)-6-methyl-5,6-dihydro-4H-1,2,4-oxadiazine] the IC50 was greater than 3 µM. Compound COc1nc(C2=NOC(C)C(c3cccc(Cl)c3)N2)ccc1-n1cnc(Cl)c1 (single isomer, unassigned; (-)) [Example 47A, (−)-3-(5-(4-chloro-1H-imidazol-1-yl)-6-methoxypyridin-2-yl)-5-(3-chlorophenyl)-6-methyl-5,6-dihydro-4H-1,2,4-oxadiazine] has an IC50 greater than 3 µM. COc1nc(C2=NOC(C)C(c3ccc(Cl)cc3)N2)ccc1-c1ccnc(C)c1 (single isomer, unassigned; (-)) [Example 48A, (−)-5-(4-chlorophenyl)-3-(2-methoxy-2′-methyl-[3,4′-bipyridin]-6-yl)-6-methyl-5,6-dihydro-4H-1,2,4-oxadiazine] was tested, and the IC50 was 0.438 µM. For COc1nc(C2=NOC(C)C(c3cccc(Cl)c3)N2)ccc1-c1ccnc(C)c1 (single isomer, unassigned; (-)) [Example 49A, (−)-5-(3-chlorophenyl)-3-(2-methoxy-2′-methyl-[3,4′-bipyridin]-6-yl)-6-methyl-5,6-dihydro-4H-1,2,4-oxadiazine], the IC50 was 0.547 µM. Work on COc1nc(C2=NOC(C)C(c3c4n(c5ccc(Cl)cc35)CCOC4)N2)ccc1-n1cnc(C)c1 (single isomer, unassigned; (-)) [Example 50B, (−)-8-chloro-10-(3-(6-methoxy-5-(4-methyl-1H-imidazol-1-yl)pyridin-2-yl)-6-methyl-5,6-dihydro-4H-1,2,4-oxadiazin-5-yl)-3,4-dihydro-1H-[1,4] oxazino [4,3-a] indole] yielded an IC50 of 0.027 µM. In the case of COc1nc(C2=NOC(C)C(c3c4n(c5ccc(Cl)cc35)CCOC4)N2)ccc1-n1cnc(C)c1 (single isomer, unassigned; (-)) [Example 50C, (−)-8-chloro-10-(3-(6-methoxy-5-(4-methyl-1H-imidazol-1-yl)pyridin-2-yl)-6-methyl-5,6-dihydro-4H-1,2,4-oxadiazin-5-yl)-3,4-dihydro-1H-[1,4] oxazino [4,3-a] indole], the IC50 is reported as 0.352 µM. COc1nc(C2=NOC(C)C(c3cn(C)c4ncc(F)c(F)c34)N2)ccc1-n1cnc(C)c1 (single isomer, unassigned; (-)) [Example 51B, (−)-5-(4,5-difluoro-1-methyl-1H-pyrrolo [2,3-b]pyridin-3-yl)-3-(6-methoxy-5-(4-methyl-1H-imidazol-1-yl)pyridin-2-yl)-6-methyl-5,6-dihydro-4H-1,2,4-oxadiazine] showed an IC50 of 0.218 µM. COc1nc(C2=NOC(C)C(c3cn(C)c4ccc(F)c(F)c34)N2)ccc1-n1cnc(C)c1 (single isomer, unassigned; (-)) [Example 52A, (−)-5-(4,5-difluoro-1-methyl-1H-indol-3-yl)-3-(6-methoxy-5-(4-methyl-1H-imidazol-1-yl)pyridin-2-yl)-6-methyl-5,6-dihydro-4H-1,2,4-oxadiazine] gave an IC50 of 0.084 µM. Compound COc1nc(C2=NOC(C)C(c3cn(C)c4ccc(F)c(F)c34)N2)ccc1-n1cnc(C)c1 (single isomer, unassigned; (-)) [Example 52D, (−)-5-(4,5-difluoro-1-methyl-1H-indol-3-yl)-3-(6-methoxy-5-(4-methyl-1H-imidazol-1-yl)pyridin-2-yl)-6-methyl-5,6-dihydro-4H-1,2,4-oxadiazine] has an IC50 of 0.401 µM. With COc1nc(C2=NOC(C)C(c3cccc(Cl)c3)N2)ccc1-n1cnc(C)n1 (single isomer, unassigned; (-)) [Example 53A, (−)-5-(3-chlorophenyl)-3-(6-methoxy-5-(3-methyl-1H-1,2,4-triazol-1-yl)pyridin-2-yl)-6-methyl-5,6-dihydro-4H-1,2,4-oxadiazine] the IC50 was greater than 3 µM. For COc1nc(C2=NOC(C)C(c3cn(C)c4ncc(Cl)cc34)N2)ccc1-n1cnc(C)c1 (single isomer, unassigned; (-)) [Example 54A, (−)-5-(5-chloro-1-methyl-1H-pyrrolo [2,3-b]pyridin-3-yl)-3-(6-methoxy-5-(4-methyl-1H-imidazol-1-yl)pyridin-2-yl)-6-methyl-5,6-dihydro-4H-1,2,4-oxadiazine], the IC50 was 0.19 µM. Compound COc1nc(C2=NOC(C)C(c3cn(C)c4ncc(Cl)cc34)N2)ccc1-n1cnc(C)c1 (single isomer, unassigned; (-)) [Example 54C, (−)-5-(5-chloro-1-methyl-1H-pyrrolo [2,3-b]pyridin-3-yl)-3-(6-methoxy-5-(4-methyl-1H-imidazol-1-yl)pyridin-2-yl)-6-methyl-5,6-dihydro-4H-1,2,4-oxadiazine] has an IC50 of 0.464 µM. In the case of COc1nc(C2=NOC(C)C(c3ccc(Cl)c(C(F)F)c3)N2)ccc1-n1cnc(C)c1 (single isomer, unassigned; (-)) [Example 55B, (−)-5-(4-chloro-3-(difluoromethyl)phenyl)-3-(6-methoxy-5-(4-methyl-1H-imidazol-1-yl)pyridin-2-yl)-6-methyl-5,6-dihydro-4H-1,2,4-oxadiazine], the IC50 is reported as 0.352 µM. In the case of COc1nc(C2=NOC(C)C(c3cn(C)c4ncc(C5CC5)cc34)N2)ccc1-n1cnc(C)c1 (single isomer, unassigned; (-)) [Example 56B, (−)-5-(5-cyclopropyl-1-methyl-1H-pyrrolo [2,3-b]pyridin-3-yl)-3-(6-methoxy-5-(4-methyl-1H-imidazol-1-yl)pyridin-2-yl)-6-methyl-5,6-dihydro-4H-1,2,4-oxadiazine], the IC50 is reported as 0.013 µM. For COc1nc(C2=NOC(C)C(c3cn(C)c4ncc(C5CC5)cc34)N2)ccc1-n1cnc(C)c1 (single isomer, unassigned; (-)) [Example 56C, (−)-5-(5-cyclopropyl-1-methyl-1H-pyrrolo [2,3-b]pyridin-3-yl)-3-(6-methoxy-5-(4-methyl-1H-imidazol-1-yl)pyridin-2-yl)-6-methyl-5,6-dihydro-4H-1,2,4-oxadiazine], the IC50 was 0.221 µM. Compound COc1nc(C2=NOC(C3CC3)C(c3cc(F)cc(F)c3)N2)ccc1-n1cnc(C)c1 (single isomer, unassigned; (-)) [Example 59B, (−)-6-cyclopropyl-5-(3,5-difluorophenyl)-3-(6-methoxy-5-(4-methyl-1H-imidazol-1-yl)pyridin-2-yl)-5,6-dihydro-4H-1,2,4-oxadiazine] has an IC50 of 0.854 µM.

— US20170050980A1, “OXADIAZINE COMPOUNDS AND METHODS OF USE THEREOF” (FORUM Pharmaceuticals Inc., priority 2015, published 2017)
